Patent US20240173314A1, “TREATMENT OF SICKLE CELL ANAEMIA” (ZYDUS LIFESCIENCES LIMITED, priority 2021, published 2024)

How the values were obtained:
ischemia condition = settings: cited from earlier work
animal model of anaemia = animal model of anaemia (Jain et al., 2019; Joharapurkar et al., 2018); cited from earlier work
[1] = tested on: PHZ-induced haemolytic anaemia; test: Phenylhydrazine (PHZ)-induced haemolytic anaemia in mice; format: in vivo, mice (male C57BL/6J); settings: 15 mg/kg, PO, daily day -1 to day 5; PHZ-treated mice
Procedure: Male C57BL/6J (6-8 weeks old) were used in the study. Mice were treated with phenylhydrazine (PHZ) on day 0, day 1 and day 3. The PHZ was given by intraperitoneally route at 40 mg/kg on day 0, and 20 mg/kg on day 1 and 3. Vehicle control or compound of formula (Ia) (15 mg/kg, PO) was given daily from day −1 to day 5. At the end of treatment period, whole blood samples were processed for haemoglobin, RBC and haematocrit measurement. The serum samples were analyzed for total iron content. The effect on oxidative and inflammatory markers will be analyzed.

isolated RBCs [2] = test: PHZ-induced reactive oxygen species (DCFDA/DCF) in isolated RBCs; format: cell-based, C57BL/6J; settings: PHZ 10 μM, RBC suspension
Procedure: (§1) The RBC was isolated from healthy male C57BL/6J (6-8 weeks old) into a heparinized tube. The RBC pellet was isolated by centrifugation. The RBC pellet was washed three time with glucose supplemented phosphate buffered saline (PBS). The final RBC pellet was diluted 1:4 with glucose supplemented PBS. The RBC suspension was incubated with compound of formula (Ia) at 0.05, 0.5 and 5 μM concentration for 30 min at 37° C. Then the phenylhydrazine (10 μM) was added to all groups and incubated for further 30 min at 37° C. After that 2,7-Dichlorofluorescin-diacetate (DCFDA, 400 μM) was added to the RBC suspension and incubated for 30 min at 37° C. After incubation, the RBC suspension was washed two times with glucose-PBS, and RBC were lysed with 200 μL of ice-cold 0.1% Triton X100 and then incubated for 30 min in darkness at room temperature. After 30 min incubation, the fluorescence of all samples was read (excitation wavelength: 485 nm and emission wavelength: 538 nm). The concentration of 2,7-Dichlorofluorescin (DCF) was calculated from the DCF standard curve. For thiobarbituric acid reactive substances (TBARS) measurement, RBC lysate was used and malondialdehyde was measured using thiobarbituric acid method (Patel V et al., 2018).

isolated RBCs [3] = test: TBARS (malondialdehyde, thiobarbituric acid method) in RBC lysate after PHZ; format: cell-based, C57BL/6J; settings: PHZ 10 μM
Procedure: as §1

[4] = tested on: erythroid progenitor cells in bone marrow of anemic rats; test: Erythroid progenitor cells in bone marrow of cisplatin/turpentine oil anemic rats; format: in vivo; settings: 15 mg/kg, PO, alternate day, two weeks
Procedure: The anaemia was induced by cisplatin (5 mg/kg, IP, single dose) and turpentine oil (5 mL/kg, SC, twice a week) administration for four weeks. The compound of formula (Ia) (15 mg/kg, PO, alternate day) treatment was initiated after two weeks of cisplatin/turpentine oil administration. After two weeks of compound of formula (Ia) treatment, animals were euthanized and bone marrow was isolated. Bone marrow smear was prepared and stain with May-Grunwald stain and Giemsa stain. The ratio of erythroid progenitor cell: total cells were expressed as percentage.

[5] = ischemia condition (Joharapurkar et al., 2021)
[6] = oxidative stress (Joharapurkar et al., 2021)

SMILES | IL-1β levels (ischemia condition; [5]) | IL-6 levels (ischemia condition; [5]) | malondialdehyde (MDA) (ischemia condition; [6]) | superoxide dismutase (SOD) (ischemia condition; [6]) | HIF stabilization (animal model of anaemia) | erythropoiesis (animal model of anaemia) | decrease in serum iron levels [1] | increase in HCT level compared with PHZ control [1] | increase in RBC level compared with PHZ control [1] | increase in hemoglobin level compared with PHZ control [1] | decrease of ROS (DCF concentration) compared with vehicle control (isolated RBCs [2]; 0.05 μM) | decrease of ROS (DCF concentration) compared with vehicle control (isolated RBCs [2]; 0.5 μM) | decrease of ROS (DCF concentration) compared with vehicle control (isolated RBCs [2]; 5 μM) | decrease of TBARS levels compared with vehicle control (isolated RBCs [3]; 0.05 μM) | decrease of TBARS levels compared with vehicle control (isolated RBCs [3]; 0.5 μM) | decrease of TBARS levels compared with vehicle control (isolated RBCs [3]; 5 μM) | increase in % erythroid progenitor cells compared with vehicle control [4]
O=C(O)CNC(=O)c1c(O)c2ccccc2n(OCC2CC2)c1=O [Desidustat] | reduced | reduced | decreases | decreases | stabilizes HIF | induces erythropoiesis |  |  |  |  |  |  |  |  |  |  | 
O=C(O)CNC(=O)c1c(O)c2ccccc2n(OCC2CC2)c1=O [compound of formula (Ia)] |  |  |  |  |  |  | 26.0±7.6% | 37.7±5.7% | 44.2±10.4% | 36.4±6.2% | 9.6±8.9% | 25.5±3.8% | 35.1±1.7% | 5.5±4.0% | 21.8±4.0% | 27.3±4.0% | 2.2±0.5 fold
